Like-named read-outs stand apart in the source and are kept apart here.

By IC50 is commonly meant the concentration at which inhibition is half-maximal. Read a high IC50 as weaker potency in that assay. The ED50 is the midpoint of the dose-response relation.

The test system of data set [1] is healthy volunteers. Further details: method as in PMID 29484635. Conditions: once daily up to 40 mg for up to 28 days; cited from earlier work.
Data set [2] relates to patients with bronchiectasis. The settings on record: 10 mg or 25 mg once daily, 24 weeks; cited from earlier work.
Data set [3] has as its system production of active NE in U937 cells. As to the kind of experiment: Inhibition of the production of active NE in a neutrophil progenitor cell line. Conditions: Homo sapiens, U-937, 48 h incubation. The format is cell-based. The source says: The inhibitory activity of BI 1291583 on the production of active NE was investigated in duplicate experiments in the human myeloid cell line U937. U937 cells were used as they constitutively express and process NE. Additionally, a myeloid cell line was used rather than primary neutrophils as CatC activates NSPs in the bone marrow during myelopoiesis and no further activation occurs once the neutrophils have entered the bloodstream; as such, the effect of CatC inhibition cannot be investigated in primary neutrophils. BI 1291583 was added to cell suspensions at a final concentration of 0.064, 0.32, 1.6, 8, 40, 200 and 1000 nM. Cells were then incubated for 48 h. Cell viability was then measured in duplicate experiments using the CellTiter-Glo® Luminescent Cell Viability Assay according to manufacturer’s instructions. For measurement of NE activity, cells were separated by centrifugation, lysed and debris removed. NE activity was measured by conversion of a fluorescent substrate. Increase in fluorescence was measured over time with a SpectramaxM5 fluorescence reader at 360 nm excitation wavelength and 460 nm emission wavelength. The reaction rate when CatC is fully saturated by BI 1291583 was used as primary readout to calculate NE activity. Percentage inhibition of NE activity in lysates treated with BI 1291583 was calculated relative to the mean of the vehicle-only control. […]

Data set [4] has as its system NE activity in mouse BALF neutrophils. As to the kind of experiment: In vivo LPS-challenge model: NE activity in BALF neutrophil lysate. The settings on record: 11-day dosing. As for the experimental part:
In the first—a 2-day treatment holiday regimen—mice were treated with 0.005, 0.05, 0.5 or 5 mg/kg BI 1291583, or vehicle, twice daily by oral gavage on Days 1‒5, 8 and 9. On Day 10, a final dose of BI 1291583 or vehicle was given followed by challenge with nebulised E. coli lipopolysaccharide (LPS) to induce neutrophil influx into the lungs. In the second dosing regimen, mice were treated with 0.00005, 0.0001, 0.001, 0.01, 0.03, 0.1, 0.5 or 5 mg/kg BI 1291583, or vehicle, once daily by oral gavage for 11 consecutive days. On Day 12, a final dose of BI 1291583 or vehicle was given followed by LPS challenge.
Four and a half hours after LPS challenge, lung neutrophils were harvested by lavage via tracheal cannula, and neutrophil count measured. Bronchoalveolar lavage fluid (BALF) samples were then centrifuged and cell pellets lysed with volume of lysis buffer normalised to neutrophil count. NE, CatG and PR3 activity were determined by conversion of a fluorescent substrate measured over time with a SpectramaxM5 fluorescence reader at 360 nm excitation wavelength and 460 nm emission wavelength. Fluorescence values were normalised to neutrophil count, and mean NE, CatG and PR3 activity from BI 1291583-treated animals was calculated relative to the mean of LPS/vehicle-treated control animals. CatG and PR3 activity was measured in pooled samples from each dose group. For the 11-day dosing experiments, the dose of BI 1291583 that inhibited 50% of NE activity (ED50) was calculated using GraphPad Prism software (version 9.5.0 for Windows, GraphPad Software, www.graphpad.com) with a non-linear regression curve fit. […] A one-way analysis of variance with Dunnett’s multiple comparisons test analysis was performed to determine statistical significance.
The inhibitory activity of INS1007 on the production of active NE, and distribution of INS1007 to bone marrow and plasma was investigated under the same conditions as the 11-day dosing regimen (see Methods, Additional File 1).
The animals were treated with BI 1291583 (0.005, 0.05, 0.5 and 5 mg/kg) or vehicle twice daily on Days 1‒5, 8 and 9. BI 1291583 or vehicle was applied orally by gavage (10 ml/kg body weight). On Day 10, animals were treated with BI 1291583 or vehicle followed by an LPS inhalation challenge.
The animals were treated with BI 1291583 (0.00005, 0.0001, 0.001, 0.01, 0.03, 0.1, 0.5, 5 mg/kg) or vehicle once daily for 11 consecutive days. BI 1291583 or vehicle was applied orally by gavage (10 ml/kg body weight). On Day 12, animals were treated with BI 1291583 or vehicle followed by an LPS inhalation challenge.
To induce neutrophil influx into the lungs, animals were challenged with an LPS inhalation at Day 12 of this study. LPS from E.coli (serotype 055:B5) was used (SigmaAldrich #L2880). […]
The trachea was cannulated and a lavage was performed using 2x1 ml lavage buffer (HBSS [HyClone, # Sh30588,01] with 10 U/ml heparin). Cell count in the lavage fluid and cell differentiation were determined using a haemocytometer (Sysmex XT-200i), following the supplier’s instructions.
For enzymatic NE measurement, the lavage cells were separated from two 500 µl aliquots of lavage fluid by centrifugation (1500rpm, 4°C, 15min), the supernatants were removed and the pellets were stored at -80°C for further analyses. For enzymatic proteinase 3 (PR3) and Cat G measurement, the remaining lavage samples from all animals of each dose group were pooled and cell count and cell differentiation were determined as described above. […]

The nature of data set [5]: Bone marrow and plasma exposure after repeated oral dosing (LC-MS/MS). The format is in vivo. The settings on record: Crl:NMRI, mouse, 11-day dosing; for Kp at 5 h: bone marrow/plasma, 5 h after final dose, read-out: bone marrow-to-plasma exposure ratio. The method, then:
At 5 h after final BI 1291583 administration, animals were euthanised by Narcoren application (400–600 mg/kg intraperitoneally). For assessment of BI 1291583 exposure in plasma, five drops of retrobulbar blood were taken. The femur was prepared by extraction, shock frozen in liquid nitrogen and stored at − 20 °C until bone marrow preparation. For preparation of bone marrow, epiphysis severed off and bone marrow extracted from the diaphysis. Exposure was measured via liquid chromatography–tandem mass spectrometry. […]

Details of data set [6]: method as in PMID 28800383. Conditions: Phase 1 study; cited from earlier work.

On to `Cn1c(=O)oc2ccc(-c3ccc(C[C@@H](C#N)NC(=O)[C@@H]4CNCCCO4)cc3)cc21` [brensocatib], for which, in data set [1], the NE activity result was “Exposure-related reduction”; the safety profile result is given as “generally well-tolerated”; the skin findings entry was “several dose-dependent, possibly CatC-related non-serious skin findings (exfoliation and hyperkeratosis)”. In data set [2], the “annualised rates of exacerbations and number of severe exacerbations compared with placebo” value is on record as “lower”; the “incidence of hyperkeratosis compared with the placebo group” value is listed as “higher”; the “risk of exacerbation over the treatment period compared with placebo” value was “lower”; the “time to first exacerbation compared with placebo” value is “significantly increased”.

Turning to `Cn1c(=O)oc2ccc(-c3ccc(C[C@@H](C#N)NC(=O)[C@@H]4CNCCCO4)cc3)cc21` [INS1007], in data set [3], half-maximal inhibition (IC50) was put at 64 nM. Further, the “inhibition of production of active NE compared with vehicle/LPS control” value in data set [4] (0.1 mg/kg once daily oral) is “no inhibition”. Further, the inhibition at 30 mg/kg in data set [4] (Mus musculus, Neutrophil, 264 h, at 30 mg/kg (range 0.3-50 mg/kg), p<0.001, read-out: maximum inhibition of production of active NE compared with LPS control) was determined as 76%. Moreover, the inhibition at 0.5 mg/kg in data set [4] (Mus musculus, Neutrophil, po, 264 h, 0.5 mg/kg once daily oral, read-out: inhibition of production of active NE compared with vehicle/LPS control) came out at 19%. The inhibition at 5 mg/kg in data set [4] (Mus musculus, Neutrophil, po, 264 h, 5 mg/kg once daily oral, read-out: inhibition of production of active NE compared with vehicle/LPS control) was 75%. In data set [4] (Neutrophil, 264 h, once daily oral, read-out: ED50 for NE inhibition), the ED50 amounted to 1.4 mg/kg. The concentration at 5 h in data set [5] (bone marrow, 0.1 mg/kg, 5 h after final dose on Day 12, read-out: exposure in bone marrow, mean (SEM)) was 143 nM; in data set [5] (bone marrow, 0.5 mg/kg, 5 h after final dose on Day 12, read-out: exposure in bone marrow, mean (SEM)), 321 nM; in data set [5] (bone marrow, 5 mg/kg, 5 h after final dose on Day 12, read-out: exposure in bone marrow, mean (SEM)), 1690 nM; in data set [5] (plasma, 0.1 mg/kg, 5 h after final dose on Day 12, read-out: exposure in plasma, mean (SEM)), 6 nM; in data set [5] (plasma, 0.5 mg/kg, 5 h after final dose on Day 12, read-out: exposure in plasma, mean (SEM)) it was 40 nM; in data set [5] (plasma, 5 mg/kg, 5 h after final dose on Day 12, read-out: exposure in plasma, mean (SEM)) it was 710 nM. Moreover, the Kp at 5 h in data set [5] (0.1 mg/kg, 0.1 mg/kg) worked out at 24; in data set [5] (0.5 mg/kg, 0.5 mg/kg), 8; in data set [5] (5 mg/kg, 5 mg/kg), 2.

Regarding `CC[C@@H](/C=C/C(=O)N1CCc2ccccc21)NC(=O)C1(N)CCOCC1` [GSK2793660], in data set [6], the “inhibition of downstream NSPs” value is listed as “insufficient inhibition of downstream NSPs” and the skin events entry is on record as “marked skin desquamation events”.

Values taken from PMC10499737 (Inflammation Research, 2023).
